System: Chorioallantioic Membrane (CAM)
Assay type: in vivo
Settings: 50 μg/cam; BRI2995: surviving eggs
Method: The in vivo CAM angiogenesis model, initially described by Folkman (1985) and modified by Maragoudakis et al (1988) was used. Briefly, fresh fertilized eggs were incubated for 4 days at 37° C. when a window was opened on the egg shell exposing the CAM. The window was covered with cellophane tape and the eggs were returned to the incubator until day 9 when the test compounds were applied. The test compounds were placed on sterile plastic discs (10 mm) and were allowed to dry under sterile conditions. Control discs (containing PBS) were placed on the CAM 1 cm away from the discs containing the test material. A sterile solution of cortisone acetate (100 ug/disc, Sigma) was incorporated in all discs in order to prevent an inflammatory response. The loaded and dried discs were inverted and placed on the CAM, the windows were covered and the eggs incubated until day 11 when angiogenesis was assessed.
For morphological evaluation, eggs were treated as above. At day 11 the eggs were flooded with 10% buffered formalin (Janssen Chimica, Geel, Belguim), the plastic discs were removed and the eggs were kept at room temperature for at least 4 hours. At large area around the disc was cut off and placed on a glass slide, and the vascular density index (expressed as number of blood vessels) was measured by the method of Harris-Hooker et al (1983).

## CO[C@@H]1[C@H](OC(=O)NC(=O)CCl)CC[C@]2(CO2)[C@H]1[C@@]1(C)O[C@@H]1CC=C(C)C [TNP-470]
  inhibition (reduction) of vascular density: 21%±16

Source: patent US6426067B1, “Angiogenic inhibitory compounds” (Biomolecular Research Institute, Ltd., priority 1996, dated 2002)
